ChEMBL document CHEMBL1201862, “PubChem BioAssay data set” (2004)
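All cell lines were grown in 96-well plates and treated with compound for 48 hours. At the GI50, growth is halved.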 The source made the active and inactive calls. Cut-off read from the data, not from the text of the source: active = GI50 up to about 1.1 µM and inactive = higher.

Legend:
Assay in all cases: inhibition of tumour cell growth, NCI panel, 48 h
[1] = test system: SNB-75
[2] = test system: RPMI-8226
[3] = test system: DMS-273
[4] = test system: KM-20L2
[5] = test system: OVCAR-4
[6] = test system: UO-31
[7] = test system: OVCAR-8
[8] = test system: HCT-116
[9] = test system: OVCAR-3
[10] = test system: UACC-62
[11] = test system: HOP-92
[12] = test system: XF498
[13] = test system: OVCAR-5
[14] = test system: NCI-H23
[15] = test system: SNB-78
[16] = test system: SK-OV-3
[17] = test system: HL-60
[18] = test system: CCRF-CEM
[19] = test system: M19-MEL
[20] = test system: Malme-3M
[21] = test system: SF-539
[22] = test system: SF-268
[23] = test system: HCC 2998
[24] = test system: HT-29
[25] = test system: CAKI-1
[26] = test system: HOP-62
[27] = test system: MOLT-4
[28] = test system: SF-295
[29] = test system: SR
[30] = test system: 786-0
[31] = test system: ACHN
[32] = test system: SK-MEL-28
[33] = test system: HCT-15
[34] = test system: SW-620
[35] = test system: SK-MEL-2
[36] = test system: A549
[37] = test system: DLD-1
[38] = test system: K562
[39] = test system: LOX IMVI
[40] = test system: NCI-H460
[41] = test system: RXF 393
[42] = test system: SK-MEL-5
[43] = test system: KM12
[44] = test system: DMS-114
[45] = test system: COLO 205
[46] = test system: SN12C
[47] = test system: U-251
[48] = test system: NCI-H226
[49] = test system: M14
[50] = test system: LXFL 529
[51] = test system: NCI-H522
[52] = test system: UACC-257
[53] = test system: TK-10
[54] = test system: EKVX
[55] = test system: SNB-19
[56] = test system: A498
[57] = test system: IGROV-1
[58] = test system: HOP-18

N#C/C(=C/c1ccc[nH]1)P(=O)(O)O
GI50 [1]: 80.4 µM (inactive) | GI50 [2]: > 100 µM (inactive) | GI50 [3]: > 100 µM (inactive) | GI50 [4]: > 100 µM (inactive) | GI50 [5]: > 100 µM (inactive) | GI50 [6]: > 100 µM (inactive) | GI50 [7]: > 100 µM (inactive) | GI50 [8]: > 100 µM (inactive) | GI50 [9]: > 100 µM (inactive) | GI50 [10]: > 100 µM (inactive) | GI50 [11]: > 100 µM (inactive) | GI50 [12]: > 100 µM (inactive) | GI50 [13]: > 100 µM (inactive) | GI50 [14]: > 100 µM (inactive) | GI50 [15]: > 100 µM (inactive) | GI50 [16]: > 100 µM (inactive) | GI50 [17]: > 100 µM (inactive) | GI50 [18]: > 100 µM (inactive) | GI50 [19]: > 100 µM (inactive) | GI50 [20]: > 100 µM (inactive) | GI50 [21]: > 100 µM (inactive) | GI50 [22]: > 100 µM (inactive) | GI50 [23]: > 100 µM (inactive) | GI50 [24]: > 100 µM (inactive) | GI50 [25]: > 100 µM (inactive) | GI50 [26]: > 100 µM (inactive) | GI50 [27]: > 100 µM (inactive) | GI50 [28]: > 100 µM (inactive) | GI50 [29]: > 100 µM (inactive) | GI50 [30]: > 100 µM (inactive) | GI50 [31]: > 100 µM (inactive) | GI50 [32]: > 100 µM (inactive) | GI50 [33]: > 100 µM | GI50 [34]: > 100 µM (inactive) | GI50 [35]: > 100 µM (inactive) | GI50 [36]: > 100 µM (inactive) | GI50 [37]: > 100 µM (inactive) | GI50 [38]: > 100 µM (inactive) | GI50 [39]: > 100 µM (inactive) | GI50 [40]: > 100 µM (inactive) | GI50 [41]: > 100 µM (inactive) | GI50 [42]: > 100 µM (inactive) | GI50 [43]: > 100 µM (inactive) | GI50 [44]: > 100 µM (inactive) | GI50 [45]: > 100 µM (inactive) | GI50 [46]: > 100 µM (inactive) | GI50 [47]: > 100 µM (inactive) | GI50 [48]: > 100 µM (inactive) | GI50 [49]: > 100 µM (inactive) | GI50 [50]: > 100 µM (inactive) | GI50 [51]: > 100 µM (inactive) | GI50 [52]: > 100 µM (inactive) | GI50 [53]: > 100 µM (inactive) | GI50 [54]: > 100 µM (inactive) | GI50 [55]: > 100 µM (inactive)

CCCN1CN(C(C(=O)N[C@@H]2C(=O)N3C(C(=O)O)=C(C)CSC23)c2ccccc2)CSC1=S (stereo partly specified)
GI50 [1]: > 100 µM (inactive) | GI50 [2]: 40.9 µM (inactive) | GI50 [3]: > 100 µM (inactive) | GI50 [4]: > 100 µM (inactive) | GI50 [5]: > 100 µM (inactive) | GI50 [6]: > 100 µM (inactive) | GI50 [7]: > 100 µM (inactive) | GI50 [8]: > 100 µM (inactive) | GI50 [9]: 68.1 µM (inactive) | GI50 [10]: > 100 µM (inactive) | GI50 [11]: > 100 µM (inactive) | GI50 [13]: > 100 µM (inactive) | GI50 [14]: > 100 µM (inactive) | GI50 [15]: > 100 µM (inactive) | GI50 [16]: > 100 µM (inactive) | GI50 [17]: 86.9 µM (inactive) | GI50 [18]: 95.1 µM (inactive) | GI50 [19]: > 100 µM (inactive) | GI50 [20]: > 100 µM (inactive) | GI50 [21]: > 100 µM (inactive) | GI50 [22]: > 100 µM (inactive) | GI50 [56]: > 100 µM (inactive) | GI50 [24]: > 100 µM (inactive) | GI50 [26]: > 100 µM (inactive) | GI50 [27]: > 100 µM (inactive) | GI50 [28]: > 100 µM (inactive) | GI50 [30]: > 100 µM (inactive) | GI50 [31]: > 100 µM (inactive) | GI50 [32]: > 100 µM (inactive) | GI50 [33]: 42 µM | GI50 [35]: > 100 µM (inactive) | GI50 [36]: > 100 µM (inactive) | GI50 [37]: > 100 µM (inactive) | GI50 [38]: 47.6 µM (inactive) | GI50 [39]: 47.4 µM (inactive) | GI50 [40]: 42.5 µM (inactive) | GI50 [41]: 25.9 µM (inactive) | GI50 [42]: > 100 µM (inactive) | GI50 [43]: > 100 µM (inactive) | GI50 [45]: 47.1 µM (inactive) | GI50 [46]: > 100 µM (inactive) | GI50 [47]: > 100 µM (inactive) | GI50 [49]: > 100 µM (inactive) | GI50 [50]: > 100 µM (inactive) | GI50 [51]: 23 µM (inactive) | GI50 [52]: > 100 µM (inactive) | GI50 [53]: > 100 µM (inactive) | GI50 [57]: > 100 µM (inactive) | GI50 [54]: > 100 µM (inactive) | GI50 [55]: > 100 µM (inactive) | GI50 [58]: > 100 µM (inactive)
